Test results from patent US7737143B2, “Substituted pyrazines as kinase inhibitors” (YM Biosciences Australia Pty Ltd, priority 2003, dated 2010).

Target: T1, human JAK2 (Homo sapiens, UniProt O60674)
T1 construct: The kinase domain of human JAK2 was amplified from U937mRNA; His tag (pFastBac HTc vector; nickel chelate purification) (N); made in house; host or cells: baculovirus; Sf9 for virus, High Five insect cells for production
Experiment: JAK kinase assay (ELISA or Alphascreen), Jak2
Assay type: biochemical
Conditions: standard conditions, read-out: Jak2 inhibition of enzyme activity
Description: The kinase domain of human JAK2 was amplified from U937mRNA using the polymerase chain reaction with the following primers: […]
JAK2 PCR products were cloned into the pFastBac HTc expression vector (Gibco) via the Sal I and Not I sites. The JAK2 plasmid was then transformed into competent DHL10Bac cells (Gibco), and the recombinant baculovirus produced prepared for transfection into Sf9 insect cells.
(§1) Baculovirus preparations from each of the JAK family members were infected into five litres of High Five cells (Invitrogen) grown in High Five serum free medium (Invitrogen) to a cell density of approximately 1-2×10^6 cells/ml. Cells are infected with virus at a MOI of 0.8-3.0. Cells were harvested and lysed. JAK kinase domains were purified by affinity chromatography on a Probond (Invitrogen) nickel chelate affinity column.
(§2) Kinase assays were performed either in a 96 well capture-based ELISA assay or in 384 well Optiplates (Packard) using an Alphascreen Protein Tyrosine Kinase kit. In either case using approximately 15 μg of affinity purified PTK domain in the presence of 50 mM HEPES, pH 7.5, 10 mM MgCl2 150 mM NaCl and 10 μM-1 mM ATP. The biotinylated substrate biotin-EGPWLEEEEEAYGWMDF-NH2 (final concentration 5 μM) was used as substrate. In the ELISA assay tyrosine phosphorylation was quantitated following transfer to an avidin coated ELISA plate using peroxidase-linked anti-phospho-tyrosine antibody PY20. In the Alphascreen assay, Alphascreen phosphotyrosine acceptor beads followed by streptavidin donor beads were added under subdued light. The ELISA plates were read on a BMG Fluorostar, the Alphascreen plates were read on a Packard Fusion Alpha. Inhibitors were added to the assays fifteen minutes prior to the addition of ATP. Inhibitors were added in aqueous DMSO, with DMSO concentrations never exceeding 1%.

T1 sequence (O60674 849-1124 limits assumed): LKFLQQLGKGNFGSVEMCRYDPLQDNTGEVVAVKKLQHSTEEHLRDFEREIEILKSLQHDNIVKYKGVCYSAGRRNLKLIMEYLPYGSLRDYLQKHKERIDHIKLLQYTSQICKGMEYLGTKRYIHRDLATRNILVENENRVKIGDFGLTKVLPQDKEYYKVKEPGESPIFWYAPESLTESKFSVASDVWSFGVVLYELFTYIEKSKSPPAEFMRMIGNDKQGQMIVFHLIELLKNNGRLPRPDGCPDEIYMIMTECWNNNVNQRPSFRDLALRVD

| Compound | inhibition at 20 µM [%] |
| --- | --- |
| C[C@H](Nc1cncc(-n2cnc3cc(NC(=O)c4ccc(CN5CCN(C)CC5)cc4)ccc32)n1)c1ccccc1 | < 50 |
| c1ccc2c(c1)ncn2-c1cncc(-c2ccncc2)n1 | ≥ 50 |
| c1cncc(-c2cncc(-n3cnc4ccccc43)n2)c1 | ≥ 50 |
| Nc1ccc(-c2cncc(-n3cnc4ccccc43)n2)cc1 | ≥ 50 |
| CCCC(Nc1cncc(-n2cnc3ccccc32)n1)c1ccccc1 (stereo not drawn) | ≥ 50 |
| CC(Nc1cncc(-n2cnc3ccc(CN4CCN(C)CC4)cc32)n1)c1ccc(F)cc1 (stereo not drawn) | < 50 |
| CCN(CC)Cc1ccc2ncn(-c3cncc(NC(C)c4ccc(F)cc4)n3)c2c1 (stereo not drawn) | < 50 |
| CC(Nc1cncc(N2CNc3cc(CN4CCN(C)CC4)ccc32)n1)c1ccc(F)cc1 (stereo not drawn) | < 50 |
| C[C@H](Nc1cncc(-n2cnc3ccc(CN4CCCCC4)cc32)n1)c1ccc(F)cc1 | ≥ 50 |
| C[C@H](Nc1cncc(-n2cnc3ccc(CN4CCCC4)cc32)n1)c1ccc(F)cc1 | ≥ 50 |

Results, then the compound that gave them:

| inhibition at 20 µM [%] | Compound |
| --- | --- |
| ≥ 50 | C[C@H](Nc1cncc(-n2cnc3cc(NS(=O)(=O)c4ccccc4)ccc32)n1)c1ccccc1 |
| ≥ 50 | CO/C=C\N(C)CCCCNC(=O)c1ccc2ncn(-c3cncc(N[C@@H](C)c4ccccc4)n3)c2c1 |
| < 50 | CC(Nc1cncc(-n2cnc3ccccc32)n1)c1ccncc1 (stereo not drawn) |
| ≥ 50 | O=S(=O)(Nc1ccc(-c2cncc(-n3cnc4ccccc43)n2)cc1)c1ccccc1 |
| < 50 | COc1cccc([C@H](C)Nc2cncc(-n3cnc4ccccc43)n2)c1 |
| ≥ 50 | CC(Nc1cncc(-n2cnc3ccc(CO)cc32)n1)c1ccc(F)cc1 (stereo not drawn) |
| < 50 | CC(Nc1cncc(-n2cnc3cc(CO)ccc32)n1)c1ccc(F)cc1 (stereo not drawn) |
| < 50 | CNCCN(C)Cc1ccc2ncn(-c3cncc(NC(C)c4ccc(F)cc4)n3)c2c1 (stereo not drawn) |
| < 50 | CCN(CC)Cc1ccc2c(c1)ncn2-c1cncc(NC(C)c2ccc(F)cc2)n1 (stereo not drawn) |
| < 50 | CC(Nc1cncc(-n2cnc3cc(CN(C)C)ccc32)n1)c1ccc(F)cc1 (stereo not drawn) |
| < 50 | CC(Nc1cncc(-n2cnc3cc(CNCCN(C)C)ccc32)n1)c1ccc(F)cc1 (stereo not drawn) |
| < 50 | CC(Nc1cncc(-n2cnc3ccncc32)n1)c1ccc(F)cc1 (stereo not drawn) |
| ≥ 50 | CC(Nc1cncc(-n2cnc3cnccc32)n1)c1ccc(F)cc1 (stereo not drawn) |
| < 50 | C[C@H](Nc1cncc(-n2cnc3cc(CO)ccc32)n1)c1ccc(F)cc1 |
| ≥ 50 | C[C@H](Nc1cncc(-n2cnc3ccc(CN4CCOCC4)cc32)n1)c1ccc(F)cc1 |

Target: T2, human JAK3 (Homo sapiens, UniProt P52333)
T2 construct: The kinase domain of human JAK3 was amplified from U937mRNA; His tag (pFastBac HTb vector; nickel chelate purification) (N); made in house; host or cells: baculovirus; Sf9 for virus, High Five insect cells for production
T2 sequence (P52333 822-1111 limits assumed): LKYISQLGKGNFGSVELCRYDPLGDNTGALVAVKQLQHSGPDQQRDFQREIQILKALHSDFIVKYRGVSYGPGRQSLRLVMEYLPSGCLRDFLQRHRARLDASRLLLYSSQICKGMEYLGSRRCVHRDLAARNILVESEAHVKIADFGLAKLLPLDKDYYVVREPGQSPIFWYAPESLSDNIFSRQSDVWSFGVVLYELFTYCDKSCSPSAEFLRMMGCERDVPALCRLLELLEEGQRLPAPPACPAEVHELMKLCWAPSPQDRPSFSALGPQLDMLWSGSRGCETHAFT
Experiment: JAK kinase assay (ELISA or Alphascreen), Jak3
Assay type: biochemical
Conditions: standard conditions, read-out: Jak3 inhibition of enzyme activity
Description: The kinase domain of human JAK3 was amplified from U937mRNA using the polymerase chain reaction with the following primers: […]
JAK3 PCR products were cloned into the pFastBac HTb expression vector (Gibco) via the Xho I and Kpn I sites. The JAK3 plasmid was then transformed into competent DH10Bac cells (Gibco), and the recombinant baculovirus produced prepared for transfection into Sf9 insect cells.
as §1, §2

| Compound | inhibition at 20 µM [%] |
| --- | --- |
| C[C@H](Nc1cncc(-n2cnc3cc(NC(=O)c4ccc(CN5CCN(C)CC5)cc4)ccc32)n1)c1ccccc1 | < 50 |
| c1ccc2c(c1)ncn2-c1cncc(-c2ccncc2)n1 | < 50 |
| c1cncc(-c2cncc(-n3cnc4ccccc43)n2)c1 | < 50 |
| Nc1ccc(-c2cncc(-n3cnc4ccccc43)n2)cc1 | < 50 |
| CCCC(Nc1cncc(-n2cnc3ccccc32)n1)c1ccccc1 (stereo not drawn) | < 50 |
| CC(Nc1cncc(-n2cnc3ccc(CN4CCN(C)CC4)cc32)n1)c1ccc(F)cc1 (stereo not drawn) | < 50 |
| CCN(CC)Cc1ccc2ncn(-c3cncc(NC(C)c4ccc(F)cc4)n3)c2c1 (stereo not drawn) | < 50 |
| CC(Nc1cncc(N2CNc3cc(CN4CCN(C)CC4)ccc32)n1)c1ccc(F)cc1 (stereo not drawn) | < 50 |
| C[C@H](Nc1cncc(-n2cnc3ccc(CN4CCCCC4)cc32)n1)c1ccc(F)cc1 | ≥ 50 |
| C[C@H](Nc1cncc(-n2cnc3ccc(CN4CCCC4)cc32)n1)c1ccc(F)cc1 | < 50 |

Further lines, results first:

| inhibition at 20 µM [%] | Compound |
| --- | --- |
| ≥ 50 | C[C@H](Nc1cncc(-n2cnc3cc(NS(=O)(=O)c4ccccc4)ccc32)n1)c1ccccc1 |
| ≥ 50 | CO/C=C\N(C)CCCCNC(=O)c1ccc2ncn(-c3cncc(N[C@@H](C)c4ccccc4)n3)c2c1 |
| < 50 | CC(Nc1cncc(-n2cnc3ccccc32)n1)c1ccncc1 (stereo not drawn) |
| ≥ 50 | O=S(=O)(Nc1ccc(-c2cncc(-n3cnc4ccccc43)n2)cc1)c1ccccc1 |
| < 50 | COc1cccc([C@H](C)Nc2cncc(-n3cnc4ccccc43)n2)c1 |
| < 50 | CC(Nc1cncc(-n2cnc3ccc(CO)cc32)n1)c1ccc(F)cc1 (stereo not drawn) |
| < 50 | CC(Nc1cncc(-n2cnc3cc(CO)ccc32)n1)c1ccc(F)cc1 (stereo not drawn) |
| < 50 | CNCCN(C)Cc1ccc2ncn(-c3cncc(NC(C)c4ccc(F)cc4)n3)c2c1 (stereo not drawn) |
| < 50 | CCN(CC)Cc1ccc2c(c1)ncn2-c1cncc(NC(C)c2ccc(F)cc2)n1 (stereo not drawn) |
| < 50 | CC(Nc1cncc(-n2cnc3cc(CN(C)C)ccc32)n1)c1ccc(F)cc1 (stereo not drawn) |
| < 50 | CC(Nc1cncc(-n2cnc3cc(CNCCN(C)C)ccc32)n1)c1ccc(F)cc1 (stereo not drawn) |
| < 50 | CC(Nc1cncc(-n2cnc3ccncc32)n1)c1ccc(F)cc1 (stereo not drawn) |
| < 50 | CC(Nc1cncc(-n2cnc3cnccc32)n1)c1ccc(F)cc1 (stereo not drawn) |
| < 50 | C[C@H](Nc1cncc(-n2cnc3cc(CO)ccc32)n1)c1ccc(F)cc1 |
| < 50 | C[C@H](Nc1cncc(-n2cnc3ccc(CN4CCOCC4)cc32)n1)c1ccc(F)cc1 |

Target: T3, zap70 (Homo sapiens, UniProt P43403)
T3 sequence (P43403 338-600 limits assumed): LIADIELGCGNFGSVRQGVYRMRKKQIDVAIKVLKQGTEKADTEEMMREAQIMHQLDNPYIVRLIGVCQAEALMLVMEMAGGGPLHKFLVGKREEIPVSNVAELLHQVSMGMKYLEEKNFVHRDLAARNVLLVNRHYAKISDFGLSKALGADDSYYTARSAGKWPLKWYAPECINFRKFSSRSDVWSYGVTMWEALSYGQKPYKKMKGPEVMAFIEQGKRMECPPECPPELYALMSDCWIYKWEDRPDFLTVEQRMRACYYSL
Experiment: Kinase assay (ELISA or Alphascreen), zap70
Assay type: biochemical
Conditions: standard conditions, read-out: zap70 inhibition of enzyme activity
Method: as §2

| inhibition at 20 µM [%] | Compound |
| --- | --- |
| ≥ 50 | CO/C=C\N(C)CCCCNC(=O)c1ccc2ncn(-c3cncc(N[C@@H](C)c4ccccc4)n3)c2c1 |
| ≥ 50 | C[C@H](Nc1cncc(-n2cnc3cc(NC(=O)c4ccc(CN5CCN(C)CC5)cc4)ccc32)n1)c1ccccc1 |
| ≥ 50 | Nc1ccc(-c2cncc(-n3cnc4ccccc43)n2)cc1 |

Target: tie2 (Homo sapiens, UniProt Q02763)
Sequence (Q02763 824-1096 limits assumed, species assumed): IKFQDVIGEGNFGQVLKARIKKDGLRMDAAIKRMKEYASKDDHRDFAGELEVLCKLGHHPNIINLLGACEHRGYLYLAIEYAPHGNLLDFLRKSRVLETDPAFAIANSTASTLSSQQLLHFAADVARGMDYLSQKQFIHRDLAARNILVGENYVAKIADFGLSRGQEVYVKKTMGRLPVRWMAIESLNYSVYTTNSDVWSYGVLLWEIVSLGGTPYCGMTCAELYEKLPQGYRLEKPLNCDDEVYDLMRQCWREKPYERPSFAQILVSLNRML
Experiment: Kinase assay (ELISA or Alphascreen), tie2
Assay type: biochemical
Conditions: standard conditions, read-out: tie2 inhibition of enzyme activity
Method: as §2

| inhibition at 20 µM [%] | Compound |
| --- | --- |
| ≥ 50 | C[C@H](Nc1cncc(-n2cnc3ccc(CN4CCCC4)cc32)n1)c1ccc(F)cc1 |

Target: hck (Homo sapiens, UniProt P08631)
Sequence (P08631 262-515 limits assumed, species assumed): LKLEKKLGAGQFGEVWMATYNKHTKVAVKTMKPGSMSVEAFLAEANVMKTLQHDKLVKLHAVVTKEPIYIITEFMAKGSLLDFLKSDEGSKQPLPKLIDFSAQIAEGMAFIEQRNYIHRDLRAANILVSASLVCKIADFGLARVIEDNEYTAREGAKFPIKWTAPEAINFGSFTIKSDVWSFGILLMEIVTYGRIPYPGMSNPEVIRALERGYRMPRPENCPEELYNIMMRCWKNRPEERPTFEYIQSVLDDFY
Experiment: Kinase assay (ELISA or Alphascreen), hck
Assay type: biochemical
Conditions: standard conditions, read-out: hck inhibition of enzyme activity
Method: as §2

| inhibition at 20 µM [%] | Compound |
| --- | --- |
| ≥ 50 | C[C@H](Nc1cncc(-n2cnc3cc(NC(=O)c4ccc(CN5CCN(C)CC5)cc4)ccc32)n1)c1ccccc1 |
| ≥ 50 | C[C@H](Nc1cncc(-n2cnc3ccc(CN4CCOCC4)cc32)n1)c1ccc(F)cc1 |

Target: kdr (Homo sapiens, UniProt P35968)
Sequence (P35968 834-1162 limits assumed, species assumed): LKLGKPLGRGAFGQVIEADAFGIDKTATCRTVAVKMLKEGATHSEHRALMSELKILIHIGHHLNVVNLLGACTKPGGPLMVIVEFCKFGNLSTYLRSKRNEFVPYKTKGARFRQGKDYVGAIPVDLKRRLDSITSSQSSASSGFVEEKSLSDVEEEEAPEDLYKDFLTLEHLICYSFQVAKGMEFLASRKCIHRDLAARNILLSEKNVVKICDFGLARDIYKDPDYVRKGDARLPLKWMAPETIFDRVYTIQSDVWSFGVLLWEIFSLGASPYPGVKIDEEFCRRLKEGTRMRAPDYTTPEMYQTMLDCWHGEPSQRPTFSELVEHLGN
Experiment: Kinase assay (ELISA or Alphascreen), kdr
Assay type: biochemical
Conditions: standard conditions, read-out: kdr inhibition of enzyme activity
Method: as §2

| inhibition at 20 µM [%] | Compound |
| --- | --- |
| ≥ 50 | CO/C=C\N(C)CCCCNC(=O)c1ccc2ncn(-c3cncc(N[C@@H](C)c4ccccc4)n3)c2c1 |
| ≥ 50 | CC(Nc1cncc(-n2cnc3ccccc32)n1)c1ccncc1 (stereo not drawn) |
| ≥ 50 | COc1cccc([C@H](C)Nc2cncc(-n3cnc4ccccc43)n2)c1 |
| ≥ 50 | CC(Nc1cncc(-n2cnc3ccc(CO)cc32)n1)c1ccc(F)cc1 (stereo not drawn) |
| ≥ 50 | CC(Nc1cncc(-n2cnc3cc(CO)ccc32)n1)c1ccc(F)cc1 (stereo not drawn) |
| ≥ 50 | CNCCN(C)Cc1ccc2ncn(-c3cncc(NC(C)c4ccc(F)cc4)n3)c2c1 (stereo not drawn) |
| ≥ 50 | CC(Nc1cncc(N2CNc3cc(CN4CCN(C)CC4)ccc32)n1)c1ccc(F)cc1 (stereo not drawn) |
| ≥ 50 | CCN(CC)Cc1ccc2c(c1)ncn2-c1cncc(NC(C)c2ccc(F)cc2)n1 (stereo not drawn) |
| ≥ 50 | CC(Nc1cncc(-n2cnc3cc(CN(C)C)ccc32)n1)c1ccc(F)cc1 (stereo not drawn) |
| ≥ 50 | CC(Nc1cncc(-n2cnc3cnccc32)n1)c1ccc(F)cc1 (stereo not drawn) |
